Experiments:
CD44 = CD44 gene expression by RT-PCR in normal human epidermal keratinocytes incubated with actives; format: cell-based; settings: NHEK, 24 hours, 0.05 wt % of LCC in medium
Protocol: (§1) The normal human epidermal keratinocytes (NHEK) (Biocell, Xi'an, China) were incubated in medium together with or without actives for 24 hours. After incubation, the total RNA for each NHEK was extracted using RNAiso Plus (TaKaRa, Cat: 9108; Cat: RR036) according to manufacturer's protocol.
(§2) The extracted RNA was quantified using Nanodrop spectrometer (Thermo Fisher Scientific, Waltham, MA, US) and reverse transcribed to generate the template cDNA using the PrimeScript II 1st Strand cDNA synthesis kit according to manufacturer's protocol. Amplification of the gene encoding the hyaluronan synthase 3 (HAS3) and CD44 was performed with RT-PCR reagent (SYBR® Premix Ex Taq™) on the ABI Vii 7 Real-Time PCR Systems (Applied Biosystems, Thermo fisher scientific, Carlsbad, CA, USA). The beta-actin gene was selected as the housekeeping gene and all data on relative expression of the target genes was normalized to beta-actin. The fold changes in expression were calculated relative to the blank control (medium having no active).

[1] = tested on: hyaluronan synthase 3 (HAS3); assay: HAS3 gene expression by RT-PCR in normal human epidermal keratinocytes incubated with actives; format: cell-based; settings: NHEK, 24 hours, 0.05 wt % of LCC in medium
Protocol: as §1, §2

In the case of Lysine carboxymethyl cysteinate [LCC], the “CD44 expression (fold change relative to blank control, normalized to beta-actin)” value (CD44) is reported as 1.06 and the “HAS3 expression (fold change relative to blank control, normalized to beta-actin)” value [1] is reported as 0.84.
